# Measured values published in article PMC8477192, “An ionic lock and a hydrophobic zipper mediate the coupling between an insect pheromone receptor BmOR3 and downstream effectors” (The Journal of Biological Chemistry, 2021).
# Legend:
# BmOR3–BmOrco = biological target: T1, BmOR3–BmOrco (Bombyx mori, UniProt Q5FBE0); assay: BmOR3–BmOrco intermolecular BRET assay; assay type: cell-based; details: HEK293 cells; 5 min stimulation; read-out: EC50 of BRET signal increase between Rluc-BmOR3 and YFP-BmOrco
# T1 sequence (Q5FBE0 1-439): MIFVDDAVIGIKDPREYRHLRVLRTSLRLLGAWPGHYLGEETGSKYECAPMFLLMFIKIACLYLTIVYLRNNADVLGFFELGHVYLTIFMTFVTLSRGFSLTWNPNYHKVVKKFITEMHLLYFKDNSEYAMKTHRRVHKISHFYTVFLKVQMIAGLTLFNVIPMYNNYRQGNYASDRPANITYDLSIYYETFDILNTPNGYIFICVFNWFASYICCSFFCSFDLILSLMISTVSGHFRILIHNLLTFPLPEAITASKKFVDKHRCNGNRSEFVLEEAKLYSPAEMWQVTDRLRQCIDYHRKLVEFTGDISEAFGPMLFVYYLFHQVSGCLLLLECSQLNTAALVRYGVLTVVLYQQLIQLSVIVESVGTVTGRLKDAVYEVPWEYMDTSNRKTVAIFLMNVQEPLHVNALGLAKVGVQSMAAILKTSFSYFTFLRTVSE
# T1 sequence (Q7YT34 1-472 partner): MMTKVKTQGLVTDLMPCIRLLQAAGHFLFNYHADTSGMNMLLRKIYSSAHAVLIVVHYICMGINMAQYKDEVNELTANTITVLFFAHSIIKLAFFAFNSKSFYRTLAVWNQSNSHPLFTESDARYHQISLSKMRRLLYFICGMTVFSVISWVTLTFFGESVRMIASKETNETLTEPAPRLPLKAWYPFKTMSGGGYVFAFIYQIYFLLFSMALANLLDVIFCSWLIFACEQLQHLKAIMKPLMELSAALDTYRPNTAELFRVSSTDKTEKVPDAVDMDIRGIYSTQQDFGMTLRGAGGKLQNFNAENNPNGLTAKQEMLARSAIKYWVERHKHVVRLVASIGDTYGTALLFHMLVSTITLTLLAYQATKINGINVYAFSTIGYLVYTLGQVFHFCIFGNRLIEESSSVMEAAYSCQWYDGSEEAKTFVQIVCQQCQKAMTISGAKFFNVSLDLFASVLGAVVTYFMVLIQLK
# Method: HEK293 cells were cotransfected with the N-terminal Rluc-tagged WT BmOR3 together with N-terminal YFP-fused BmOrco plasmids or their mutants. Twenty-four hours after transfection, cells were distributed into a 96-well microplate. After another 24 h, the cells were stimulated with different concentrations of bombykal for 5 min. BRET between RLuc and YFP was measured using a Mithras LB 940 multimode reader after the addition of the RLuc substrate coelenterazine h (5 μM). The BRET signal was calculated as the ratio of emission of YFP (530 nm) to RLuc (485 nm). For the saturation BRET between Rluc-BmOrco and YFP-BmOR3, HEK293 cells were transfected with a fixed amount of Rluc-BmOrco and increasing amounts of YFP-BmOR3. The BRET signal between RLuc and YFP was directly measured after the addition of the substrate coelenterazine h (5 μM).
# BmOR3 = BmOR3 (Bombyx mori, UniProt Q5FBE0); assay: Western blotting of ERK and SRC phosphorylation; assay type: cell-based; details: BmOR3-expressing HEK293 cells; 1 μM, 15 min; abrogated in β-arrestin siRNA-transfected cells
# Method: HEK293 cells transfected with BmOR3 in the absence or presence of βarrestin1/2 siRNA were starved for 12 h at 37 °C before stimulated with 1 μM bombykal for 15 min. The cells were lysed in ice-cold lysis buffer (50 mM Tris-HCl, pH 7.4, 150 mM NaCl, 1 mM NaF, 1% Triton, 2 mM EDTA, 1% NP-40, 1% protease and phosphatase inhibitor cocktail), and the supernatant was collected after centrifugation. Proteins were separated by PAGE and transferred to PVDF membrane. After blocking in PBS containing 5% bovine serum albumin and 0.1% Tween-20, the membrane was incubated with the primary antibody at 4 °C overnight, followed by incubation with HRP conjugate–secondary antibody at RT for an hour. The signals were detected with the ECL system (Thermo Fisher Scientific). Primary antibodies were as follows: anti-ERK (Santa Cruz, Cat. No. sc-154); anti-pERK (Proteintech, Cat. No. 15361-1-AP); anti-SRC (Cell Signaling Technology, Cat. No. 2109S); anti-pSRC(Y416) (Cell Signaling Technology, Cat. No. 2101S); anti-beta actin (ORIGENE, Cat. No. TA811000); anti-βarrestin1(Proteintech, Cat. No. 15361-1-AP); anti-βarrestin2 (Proteintech, Cat. No. 10171-1-AP).
smiles,measurement,setting,value
CCC/C=C\C=C\CCCCCCCCC=O [bombykal],EC50,BmOR3–BmOrco,36 ± 3.89 nM
same,phosphorylation level of ERK,BmOR3,significantly elevated
same,phosphorylation level of SRC,BmOR3,significantly elevated
